This passage reports IC50 results from the Kinase Knowledgebase extract (Sharma et al. 2016).

Bounds are passed on as bounds.

The assay deals with EGFR (UniProt P00533).
Sequence of EGFR (P00533 whole entry, looked up): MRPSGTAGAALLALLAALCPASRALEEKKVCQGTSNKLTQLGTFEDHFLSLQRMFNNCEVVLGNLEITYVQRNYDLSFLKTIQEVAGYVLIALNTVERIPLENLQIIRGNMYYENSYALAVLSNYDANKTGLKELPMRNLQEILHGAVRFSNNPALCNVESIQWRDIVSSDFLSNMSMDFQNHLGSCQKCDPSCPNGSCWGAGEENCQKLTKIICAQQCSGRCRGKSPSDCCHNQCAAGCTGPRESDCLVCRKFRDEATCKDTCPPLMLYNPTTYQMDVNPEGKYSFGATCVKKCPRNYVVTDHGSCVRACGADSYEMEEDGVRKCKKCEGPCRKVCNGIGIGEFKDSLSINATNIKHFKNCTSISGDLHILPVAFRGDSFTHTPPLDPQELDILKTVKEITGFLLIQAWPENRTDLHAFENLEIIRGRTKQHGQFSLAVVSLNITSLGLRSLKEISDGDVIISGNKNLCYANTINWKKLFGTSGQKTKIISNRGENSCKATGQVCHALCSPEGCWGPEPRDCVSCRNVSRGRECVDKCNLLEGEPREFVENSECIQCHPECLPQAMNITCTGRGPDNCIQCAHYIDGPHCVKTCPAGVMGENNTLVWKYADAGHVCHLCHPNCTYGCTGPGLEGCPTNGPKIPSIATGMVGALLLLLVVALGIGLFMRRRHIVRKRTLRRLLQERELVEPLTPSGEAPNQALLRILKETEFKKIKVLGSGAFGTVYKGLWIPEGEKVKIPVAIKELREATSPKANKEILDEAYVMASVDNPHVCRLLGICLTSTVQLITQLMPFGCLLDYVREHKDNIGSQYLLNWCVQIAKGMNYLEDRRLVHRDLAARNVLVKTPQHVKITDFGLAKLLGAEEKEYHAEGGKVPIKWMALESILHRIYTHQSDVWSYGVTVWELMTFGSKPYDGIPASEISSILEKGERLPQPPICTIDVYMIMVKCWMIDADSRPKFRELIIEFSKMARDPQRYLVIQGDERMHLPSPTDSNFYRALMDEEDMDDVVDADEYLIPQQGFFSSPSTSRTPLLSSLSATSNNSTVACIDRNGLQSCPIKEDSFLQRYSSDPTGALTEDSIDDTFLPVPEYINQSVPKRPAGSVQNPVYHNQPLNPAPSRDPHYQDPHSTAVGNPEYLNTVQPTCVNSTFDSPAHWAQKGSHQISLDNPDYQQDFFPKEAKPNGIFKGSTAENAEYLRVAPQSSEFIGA
As to `COc1cccc(Nc2ncnc3cc(OC)c(OC)cc23)c1`, the IC50 was determined as 50 nM.
Under `COc1cc2ncnc(Nc3ccc4ccccc4c3)c2cc1OC` stands 50 nM.
Under `COc1cc2ncnc(Nc3cccc(C#N)c3)c2cc1OC` stands 10000 nM; under `COc1cc2ncnc(NC3CCCCC3)c2cc1OC`, under 1000 nM; under `COc1cc2ncnc(N(C)c3ccccc3)c2cc1OC`, 200 nM.
To `COc1cc2ncnc(Nc3ccc(OC(C)C)cc3)c2cc1OC` belongs 5000 nM; to `COc1cccc(Sc2ncnc3cc(OC)c(OC)cc23)c1`, 2000 nM.
The compound `Clc1cccc(Nc2ncnc3ccccc23)c1` returned an IC50 of 50 to 100 nM.
The compound `COc1cc2ncnc(Nc3ccccc3Cl)c2cc1OC` returned a half-maximal inhibitory concentration (IC50) of 50 nM.
To `COc1cc2ncnc(Sc3cccc(Cl)c3)c2cc1OC` belongs 100 nM.
To `COc1cc2ncnc(Nc3cc(Cl)c(Cl)c(Cl)c3)c2cc1OC` belongs 1000 nM.
The compound `COc1cc2ncnc(Cc3ccccc3)c2cc1OC` showed a half-inhibitory concentration (IC50) of at most 500 nM.
Under `COc1ccc2ncnc(Nc3cc(OC)c(OC)c(OC)c3)c2c1` stands 5000 nM; under `COc1cc2ncnc(Nc3cccc4ccccc34)c2cc1OC`, 10 nM.

In general, IC50 refers to the midpoint of a concentration-inhibition curve. A high value points to lower potency.
